Measurements taken from patent US20110251135A1, “INHIBITORS OF PERITONEAL SEEDING OF CANCER CELLS” (University of Utah Research Foundation, priority 2008, published 2011).
Values joined by “and” are separate entries in the source; they are usually repeats but may differ in a detail not shown here. Equal entries are not always repeated.

How the values were obtained:
[1] = tested on: HT-29 cells; assay: Intraabdominal seeding model, intraperitoneal injection of colon cancer cells into athymic mice (21 days); assay type: in vivo, mouse; conditions: HT-29 IP in athymic mice, BAY 11-7085 (1 mg/kg) IP 24 hours earlier, then twice weekly, n = 6
From the text: FIG. 6 is a group of photographs showing an intraabdominal seeding model. FIGS. 6A, B, C show tumor implants of the liver of three athymic mice 21 days after receiving intraperitoneal injections of HT-29 cells. The mice were pretreated and treated for a total of 21 days with DMSO twice weekly. […] The mouse was pretreated and treated for a total of 21 days with DMSO twice weekly. FIG. 6E is a micrograph showing tumor invasion through the liver capsule. This section was obtained from the tumor implant from the mouse in FIG. 6A. […] FIG. 6G, (liver), FIG. 6H, (abdominal wall), and FIG. 6I, (intestinal) show tumor implants in three athymic mice 21 days after receiving intraabdominal injections of HCT-116 cells. All of the mice were treated with 5 mg/kg of BAY 11-7085 twice weekly.
HT-29 and HCT-116 cells were harvested in 0.25% trypsin-PBS-EDTA, washed once in media and PBS, and resuspended in PBS at 1 million cells per 200 μL. […] Subcutaneous tumor sizes were determined by measuring the length and width with calipers. […]
During colorectal cancer surgery, seeding of the peritoneal cavity by tumor cells with tumor cell implantation of the peritoneal surfaces can occur. Seeding results from the transient suspension of cancer cells, through a loss of adhesion either naturally ro because of surgical displacement, followed by readhesion to other tissues. […]

[2] = tested on: JNK; assay: JNK activity (phosphorylation of c-JUN) in colon and pancreatic cancer cell lines; assay type: cell-based, human
[3] = tested on: 293-COX-2 cells; assay: Apoptosis of 293-COX-2 cells with or without ponasterone induction of COX-2; assay type: cell-based; conditions: 8 hours of exposure
Experimental: The transiently suspended cells were lysed and allowed to bind to DNA oligonucleotides, containing the NF-κB consensus binding site, that were immobilized to 96-well plates. NF-κB protein bound to the oligonucleotides was detected by an antibody to the p65 subunit that only recognized p65 that is bound to DNA. The positive control was HeLa cells that were stimulated with TNFα. A control was performed using excess free NF-κB oligonucleotides (Competitor). […] NF-κB binding activity was determined by the TransAM assay as in FIG. 5A. […] The data shown represent typical results of three separate experiments. […] An immunoblot for COX-2 was performed.
DLD-1, HCT-116, and HT-29 colon cancer cell lines were obtained from the ATCC collection and were cultured in Dulbecco's Modification of Eagle's Medium (DMEM) supplemented with 10% fetal bovine serum, glutamine, penicillin, and streptomycin. […]
Single cell suspensions were plated at 100,000 cells per well in 24-well plates in media containing DMSO, BAY 11-7082, BAY 11-7085, or MG-132 for 8-24 hours in an incubator. […] 400 μL of binding buffer was added to each tube and the cells were analyzed by flow cytometry immediately. The percent of apoptosis was determined as the percent of annexin V-positive, propidium iodide-negative cells of the total cells counted. […]

[4] = tested on: pancreatic (Su.86, PL-45) and colon cancer cells (HT-29); assay: Cleaved PARP western blot during readhesion; assay type: cell-based, human; conditions: 10-20 μM BAY 11-7085; 8 hours
Experimental: FIG. 10 is a graph showing that BAY 11-7085 induces apoptosis of pancreatic and colon cancer cells during readhesion. Pancreatic (Su.86, PL-45) and colon cancer cells (HT-29) were transiently suspended and allowed to readhere in the presence or absence of vehicle or various concentrations of BAY 11-7085 for 8 hours. The floating and adherent cells were collected and lysed. Western blots for cleaved PARP were performed to determine if the cells were undergoing apoptosis (FIG. 10A). Transiently suspended pancreatic cancer cells ([…] per well) were allowed to readhere in the presence of vehicle or various concentrations of BAY 11-7085 for 24 hours. Nonadherent apoptotic cells were washed away and the remaining adherent cells stained with crystal violet and then dried. The crystal violet stained cells were lysed and the absorbance read in a plate spectrophotometer (FIG. 10B). […] The results are expressed as a percentage of cells surviving compared with vehicle alone.
BxPc-3, PL-45, Su.86.86 and HT-29 cells were transiently suspended and treated in vitro with varying concentrations of BAY 11-7085 or DMSO for four to eight hours. […] The degree of apoptosis was determined by western blotting for cleaved PARP.

CC(C)(C)c1ccc(S(=O)(=O)/C=C/C#N)cc1 [BAY 11-7085, (2E)-3-[4-(tertiarybutylphenyl)sulfonyl]-2-propenenitrile]
Liver Metastases (mice with metastases/n) [1]: none of the 6 and 0/6
Peritoneal Metastases (mice with metastases/n) [1]: 2 of 6 and 2/6
JNK activity (phosphorylation of c-JUN) [2]: readily induced JNK activity
apoptosis ([3]; ponasterone-induced 293-COX-2 cells (1 μg/mL, 48 hours)): marked increase in BAY 11-7085-induced apoptosis
apoptosis ([3]; uninduced 293-COX-2 cells): no increase in apoptosis
apoptosis (cleaved PARP levels) during cell readhesion [4]: increased apoptosis (cleaved PARP levels)
